Type in all cases: in vivo
The subject of experiment [1] is corn (Zea mays). Nature of the experiment: Test A postemergence. As to conditions: Zea mays, post-emergence, 240 h, 125 g ai/ha, postemergence; visual injury after approximately 10 d; 0 to 100 scale (0 no effect, 100 complete control). The method in brief: (§1)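 Seeded soil received test chemicals as a preemergence directed spray, and seedlings at one to two leaves, 2–10 cm tall, received them postemergence, in a non-phytotoxic, surfactant-containing solvent mixture. Pots were held in a greenhouse for approximately 10 d, then rated for injury from 0, no effect, to 100, complete control.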

The subject of experiment [2] is pigweed (Amaranthus retroflexus). Nature of the experiment: Test A postemergence. Particulars: Amaranthus retroflexus, post-emergence, 240 h, 125 g ai/ha, postemergence; visual injury after approximately 10 d; 0 to 100 scale (0 no effect, 100 complete control); read-out: Plant response rating, Pigweed. An outline of the steps: as §1
Experiment [3] deals with ragweed (common ragweed, Ambrosia elatior). The experiment is described as follows: Test A postemergence. As to conditions: Ambrosia artemisiifolia, post-emergence, 240 h, 125 g ai/ha, postemergence; visual injury after approximately 10 d; 0 to 100 scale (0 no effect, 100 complete control); read-out: Plant response rating, Ragweed. The method in brief: as §1
Experiment [4] has as its system blackgrass (Alopecurus myosuroides). Nature of the experiment: Test A postemergence. As to conditions: Alopecurus myosuroides, post-emergence, 240 h, 125 g ai/ha, postemergence; visual injury after approximately 10 d; 0 to 100 scale (0 no effect, 100 complete control); read-out: Plant response rating, Blackgrass. The method in brief: as §1
Experiment [5] has as its system Galium (catchweed bedstraw, Galium aparine). Nature of the experiment: Test A postemergence. As to conditions: Galium, post-emergence, 240 h, 125 g ai/ha, postemergence; visual injury after approximately 10 d; 0 to 100 scale (0 no effect, 100 complete control); read-out: Plant response rating, Galium. An outline of the steps: as §1
Experiment [6] deals with Kochia (Kochia scoparia). Nature of the experiment: Test A postemergence. As to conditions: Bassia scoparia, post-emergence, 240 h, 125 g ai/ha, postemergence; visual injury after approximately 10 d; 0 to 100 scale (0 no effect, 100 complete control); read-out: Plant response rating, Kochia. An outline of the steps:
as §1

For experiment [7], the system named is giant foxtail (Setaria faberii). Nature of the experiment: Test A postemergence. As to conditions: Setaria faberi, post-emergence, 240 h, 125 g ai/ha, postemergence; visual injury after approximately 10 d; 0 to 100 scale (0 no effect, 100 complete control); read-out: Plant response rating, Foxtail, Giant. An outline of the steps: as §1
In experiment [8] the test system is ryegrass, Italian (Italian ryegrass, Lolium multiflorum). Nature of the experiment: Test A postemergence. Particulars: Lolium multiflorum, post-emergence, 240 h, 125 g ai/ha, postemergence; visual injury after approximately 10 d; 0 to 100 scale (0 no effect, 100 complete control); read-out: Plant response rating, Ryegrass, Italian. An outline of the steps: as §1

The test system of experiment [9] is barnyardgrass (Echinochloa crus-galli). Nature of the experiment: Test A postemergence. As to conditions: Echinochloa crus-galli, post-emergence, 240 h, 125 g ai/ha, postemergence; visual injury after approximately 10 d; 0 to 100 scale (0 no effect, 100 complete control); read-out: Plant response rating, Barnyardgrass. An outline of the steps:
as §1

Experiment [10] has as its system pigweed (Amaranthus retroflexus). The experiment is described as follows: Test A preemergence. Particulars: Amaranthus retroflexus, pre-emergence, 240 h.
The subject of experiment [11] is ragweed (common ragweed, Ambrosia elatior). Nature of the experiment: Test A preemergence. Particulars: Ambrosia artemisiifolia, pre-emergence, 240 h. The method in brief: as §1
The subject of experiment [12] is Kochia (Kochia scoparia). Nature of the experiment: Test A preemergence. Particulars: Bassia scoparia, pre-emergence, 240 h. The method in brief:
as §1

The subject of experiment [13] is giant foxtail (Setaria faberii). The experiment is described as follows: Test A preemergence. Particulars: Setaria faberi, pre-emergence, 240 h. An outline of the steps:
as §1

The subject of experiment [14] is ryegrass, Italian (Italian ryegrass, Lolium multiflorum). The experiment is described as follows: Test A preemergence. As to conditions: Lolium multiflorum, pre-emergence, 240 h. The method in brief:
as §1

In experiment [15] the test system is barnyardgrass (Echinochloa crus-galli). Nature of the experiment: Test A preemergence. As to conditions: Echinochloa crus-galli, pre-emergence, 240 h. An outline of the steps:
as §1

Molecules are shown by their SMILES.

In the case of `Cc1cc([C@H]2CNC(=O)[C@@H]2C(=O)Nc2ccc(F)cc2F)ccc1Cl` [Compound 791], the Corn plant response rating (crop injury, 0 = no effect, 100 = complete kill) at 125 g/ha in experiment [1] is 0%. For the same compound, the pest or weed control at 125 g/ha in experiment [2] was 0%; in [3], 0%; in [4] it was 0%; in [5], 60%; in experiment [6], 20%; in experiment [7] it was 30%. For the same compound, the pest or weed control at 125 g/ha in experiment [8] came to 0%; in experiment [9] it was 60%; in experiment [10] (125 g ai/ha, preemergence, visual rating after approx. 10 d, 0 to 100 scale where 0 is no effect and 100 is complete control, read-out: Plant response rating, Pigweed) it was 0%; in experiment [11] (125 g ai/ha, preemergence, visual rating after approx. 10 d, 0 to 100 scale where 0 is no effect and 100 is complete control, read-out: Plant response rating, Ragweed), 0%; in experiment [12] (125 g ai/ha, preemergence, visual rating after approx. 10 d, 0 to 100 scale where 0 is no effect and 100 is complete control, read-out: Plant response rating, Kochia) it was 50%; in experiment [13] (125 g ai/ha, preemergence, visual rating after approx. 10 d, 0 to 100 scale where 0 is no effect and 100 is complete control, read-out: Plant response rating, Foxtail, Giant), 50%. Also, the pest or weed control at 125 g/ha in experiment [14] (125 g ai/ha, preemergence, visual rating after approx. 10 d, 0 to 100 scale where 0 is no effect and 100 is complete control, read-out: Plant response rating, Ryegrass, Italian) worked out at 0%; in [15] (125 g ai/ha, preemergence, visual rating after approx. 10 d, 0 to 100 scale where 0 is no effect and 100 is complete control, read-out: Plant response rating, Barnyardgrass) it was 90%. The pest or weed control at 500 g/ha was 0% in [10] (500 g ai/ha, Preemergence, visual injury vs untreated controls after approximately 10 d, read-out: Pigweed plant response rating (0 to 100 scale where 0 is no effect and 100 is complete control)); 40% in experiment [11] (500 g ai/ha, Preemergence, visual injury vs untreated controls after approximately 10 d, read-out: Ragweed plant response rating (0 to 100 scale where 0 is no effect and 100 is complete control)); 60% in experiment [12] (500 g ai/ha, Preemergence, visual injury vs untreated controls after approximately 10 d, read-out: Kochia plant response rating (0 to 100 scale where 0 is no effect and 100 is complete control)); 90% in [13] (500 g ai/ha, Preemergence, visual injury vs untreated controls after approximately 10 d, read-out: Foxtail, Giant plant response rating (0 to 100 scale where 0 is no effect and 100 is complete control)); 20% in experiment [14] (500 g ai/ha, Preemergence, visual injury vs untreated controls after approximately 10 d, read-out: Ryegrass, Italian plant response rating (0 to 100 scale where 0 is no effect and 100 is complete control)); 90% in [15] (500 g ai/ha, Preemergence, visual injury vs untreated controls after approximately 10 d, read-out: Barnyardgrass plant response rating (0 to 100 scale where 0 is no effect and 100 is complete control)).

For the origin of these results see patent publication US12077503B2, “Substituted cyclic amides and their use as herbicides” (FMC CORPORATION, priority 2015, dated 2024).
